Measured values from the supplement of paper PMC10307832.

Tests used:
Assay in all cases: relative viability (nuclei count vs DMSO), 5 days (fraction); higher = more cells survive
Vemurafenib + Trametinib = compound: CCCS(=O)(=O)Nc1ccc(F)c(C(=O)c2c[nH]c3ncc(-c4ccc(Cl)cc4)cc23)c1F [Vemurafenib] + CC(=O)Nc1cccc(-n2c(=O)n(C3CC3)c(=O)c3c(Nc4ccc(I)cc4F)n(C)c(=O)c(C)c32)c1 [Trametinib] (partner 0.02 µM)
Outline: (§1)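 Relative viability is defined as nuclei in treated wells over nuclei in vehicle wells. Duplicate plates were run and medians reported. Lung cancer cell lines in 1536-well plates were dosed by pin tool one day after seeding, with one drug or with a fixed anchor-drug dose plus five library-drug doses (not always all listed) in √10 steps, and nuclei were counted after 5 days.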

Alpelisib + Luminespib = compound: Cc1nc(NC(=O)N2CCC[C@H]2C(N)=O)sc1-c1ccnc(C(C)(C)C(F)(F)F)c1 [Alpelisib] + CCNC(=O)c1noc(-c2cc(C(C)C)c(O)cc2O)c1-c1ccc(CN2CCOCC2)cc1 [Luminespib] (partner 0.01 µM)
Outline: as §1

Alpelisib + Pemetrexed = compound: Cc1nc(NC(=O)N2CCC[C@H]2C(N)=O)sc1-c1ccnc(C(C)(C)C(F)(F)F)c1 [Alpelisib] + Nc1nc2[nH]cc(CCc3ccc(C(=O)N[C@@H](CCC(=O)O)C(=O)O)cc3)c2c(=O)[nH]1 [Pemetrexed] (partner 0.2 µM)
Outline: as §1

OSI-027 + Phenformin = compound: COc1cccc2cc(-c3nc([C@H]4CC[C@H](C(=O)O)CC4)n4ncnc(N)c34)[nH]c12 [OSI-027] + N=C(N)NC(=N)NCCc1ccccc1 [Phenformin] (partner 250 µM)
Outline: as §1

| Cell Line | relative viability (Vemurafenib + Trametinib; first compound 0.03162 µM) | relative viability (Vemurafenib + Trametinib; first compound 0.1 µM) | relative viability (Vemurafenib + Trametinib; first compound 0.3162 µM) | relative viability (Vemurafenib + Trametinib; first compound 1 µM) | relative viability (Alpelisib + Luminespib; first compound 0.04 µM) | relative viability (Alpelisib + Luminespib; first compound 0.1265 µM) | relative viability (Alpelisib + Luminespib; first compound 0.4 µM) | relative viability (Alpelisib + Luminespib; first compound 1.265 µM) | relative viability (Alpelisib + Luminespib; first compound 4 µM) | relative viability (Alpelisib + Pemetrexed; first compound 0.04 µM) | relative viability (Alpelisib + Pemetrexed; first compound 0.1265 µM) | relative viability (Alpelisib + Pemetrexed; first compound 0.4 µM) | relative viability (Alpelisib + Pemetrexed; first compound 1.265 µM) | relative viability (Alpelisib + Pemetrexed; first compound 4 µM) | relative viability (OSI-027 + Phenformin; first compound 0.01 µM) | relative viability (OSI-027 + Phenformin; first compound 0.03162 µM) | relative viability (OSI-027 + Phenformin; first compound 0.1 µM) | relative viability (OSI-027 + Phenformin; first compound 0.3162 µM) | relative viability (OSI-027 + Phenformin; first compound 1 µM) |
| --- | --- | --- | --- | --- | --- | --- | --- | --- | --- | --- | --- | --- | --- | --- | --- | --- | --- | --- | --- |
| HARA | 0.742 | 0.325 | 0.71 | 0.757 | 0.406 | 0.955 | 0.896 | 0.515 | 0.341 | 0.254 | 0.249 | 0.26 | 0.23 | 0.274 | 0.439 | 0.425 | 0.488 | 0.408 | 0.261 |
| HCC-15 | 0.373 | 0.363 | 0.43 | 0.429 | 0.252 | 0.292 | 0.336 | 0.423 | 0.145 | 0.228 | 0.218 | 0.211 | 0.21 | 0.211 | 0.465 | 0.458 | 0.45 | 0.389 | 0.279 |
| HCC-44 | 1.01 | 1 | 1.02 | 1.14 | 1.11 | 1.08 | 1.2 | 0.614 | 0.84 | 0.65 | 0.706 | 0.698 | 0.65 | 0.619 | 0.16 | 0.229 | 0.127 | 0.158 | 0.12 |
| HCC-827 | 0.52 | – | 0.73 | 0.585 | 0.703 | 0.594 | 0.586 | 0.406 | 0.215 | 0.277 | 0.285 | 0.278 | 0.225 | 0.143 | 0.358 | 0.423 | 0.408 | 0.4 | 0.328 |
| HOP-62 | 0.419 | 0.36 | 0.416 | 0.594 | 0.943 | 0.957 | 1.04 | 0.83 | 0.956 | 0.342 | 0.28 | 0.364 | 0.26 | 0.297 | 0.648 | 0.565 | 0.716 | 0.77 | 0.388 |
| LC-2-ad | 0.868 | 0.815 | 0.998 | 0.921 | 0.985 | 0.97 | 1.3 | 0.846 | 0.827 | 0.276 | 0.276 | 0.275 | 0.267 | 0.271 | 0.566 | 0.647 | 0.51 | 0.509 | 0.449 |
| LCLC-97TM1 | – | 0.184 | 0.201 | 0.268 | 0.852 | 0.707 | 0.705 | 0.279 | 0.23 | 0.177 | 0.17 | 0.183 | 0.174 | 0.127 | 0.477 | 0.459 | 0.332 | 0.246 | 0.306 |
| LCLC-103H | 0.668 | 0.619 | 0.685 | 0.768 | 0.97 | 0.993 | 1.04 | 0.72 | 0.735 | 0.476 | 0.488 | 0.506 | 0.47 | 0.333 | 0.348 | 0.337 | 0.36 | 0.284 | 0.272 |
| LK-2 | 0.889 | 0.693 | 1.12 | 0.607 | 0.139 | 0.159 | 0.196 | 0.191 | 0.176 | 0.247 | 0.252 | 0.213 | 0.209 | 0.199 | 0.437 | 0.344 | 0.328 | 0.155 | 0.275 |
| LOU-NH91 | 0.743 | 0.656 | 0.642 | 0.861 | 0.239 | 0.266 | 0.311 | 0.247 | 0.27 | 0.398 | 0.385 | 0.486 | 0.407 | 0.404 | 0.699 | 0.679 | 0.504 | 0.548 | 0.411 |
| LU99A | 0.521 | 0.563 | – | 0.664 | 0.298 | 0.216 | 0.249 | 0.226 | 0.247 | 0.187 | 0.188 | 0.193 | 0.154 | 0.159 | 0.777 | 0.844 | 0.869 | 0.593 | 0.292 |
| LXF-289 | 0.656 | 0.599 | 0.697 | 0.733 | 0.69 | 0.806 | 0.619 | 0.534 | 0.632 | 0.899 | 0.866 | 0.999 | 0.904 | 0.949 | 0.525 | 0.518 | 0.543 | 0.484 | 0.398 |
| NCI-H23 | 0.295 | 0.314 | 0.457 | 0.366 | 0.225 | – | 0.244 | 0.201 | 0.215 | 0.78 | 0.622 | 0.726 | 0.602 | 0.416 | 0.824 | 0.767 | 0.808 | 0.669 | 0.533 |
| NCI-H322M | 0.462 | – | 0.723 | 0.547 | 0.795 | 0.737 | 0.789 | 0.45 | 0.39 | 0.561 | 0.61 | 0.588 | 0.489 | 0.578 | 0.737 | 0.748 | 0.674 | 0.531 | 0.498 |
| NCI-H358 | 0.155 | 0.119 | 0.15 | 0.175 | 0.29 | 0.23 | 0.32 | 0.252 | 0.215 | 0.196 | 0.163 | 0.145 | 0.143 | 0.145 | 0.309 | 0.301 | 0.311 | 0.334 | 0.283 |
| NCI-H441 | 0.434 | 0.431 | 0.611 | 0.472 | 0.395 | 0.324 | 0.333 | 0.272 | 0.312 | 0.273 | 0.269 | 0.28 | 0.264 | 0.272 | 0.895 | 0.879 | 0.841 | 0.55 | 0.474 |
